Inconclusive results and toxic doses are left out. Cut-off read from the data, not from the text of the source: active = T/C of 150% or more; inactive = T/C below 125%.
System: L1210 leukemia ip in BDF1 mice, survival T/C
Test: NCI In Vivo Anticancer Drug Screen. Data for tumor model L1210 Leukemia (intraperitoneal) in B6D2F1 (BDF1) mice
Settings: endpoint: mean survival time, higher = longer survival
Outline: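 Antitumor effect is assessed in tumor-bearing animals. Survival in the compound arm is compared with a vehicle-dosed control arm and expressed as their quotient.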

[1] = dose: 100.0 mg/kg/injection, schedule: Q01DX001 (ip), vehicle: saline with Tween-80
[2] = dose: 200.0 mg/kg/injection, schedule: Q01DX001 (ip), vehicle: saline with Tween-80
[3] = dose: 100.0 mg/kg/injection, schedule: Q01DX009 (ip), vehicle: Klucel (hydroxypropylcellulose) (HPC)
[4] = dose: 200.0 mg/kg/injection, schedule: Q01DX009 (ip), vehicle: Klucel (hydroxypropylcellulose) (HPC)
[5] = dose: 400.0 mg/kg/injection, schedule: Q01DX009 (ip), vehicle: Klucel (hydroxypropylcellulose) (HPC)
[6] = dose: 50.0 mg/kg/injection, schedule: Q01DX001 (ip), vehicle: carboxymethylcellulose (CMC)
[7] = dose: 100.0 mg/kg/injection, schedule: Q01DX001 (ip), vehicle: carboxymethylcellulose (CMC)
[8] = dose: 200.0 mg/kg/injection, schedule: Q01DX001 (ip), vehicle: carboxymethylcellulose (CMC)
[9] = dose: 400.0 mg/kg/injection, schedule: Q01DX001 (ip), vehicle: carboxymethylcellulose (CMC)
[10] = dose: 100.0 mg/kg/injection, schedule: Q04DX003 (ip), vehicle: Klucel (hydroxypropylcellulose) (HPC)
[11] = dose: 150.0 mg/kg/injection, schedule: Q01DX009 (ip), vehicle: Klucel (hydroxypropylcellulose) (HPC)
[12] = dose: 200.0 mg/kg/injection, schedule: Q04DX003 (ip), vehicle: Klucel (hydroxypropylcellulose) (HPC)
[13] = dose: 400.0 mg/kg/injection, schedule: Q04DX003 (ip), vehicle: Klucel (hydroxypropylcellulose) (HPC)
[14] = dose: 100.0 mg/kg/injection, schedule: Q01DX001 (ip), vehicle: saline
[15] = dose: 100.0 mg/kg/injection, schedule: Q01DX009 (ip), vehicle: saline with Tween-80
[16] = dose: 200.0 mg/kg/injection, schedule: Q01DX001 (ip), vehicle: saline
[17] = dose: 200.0 mg/kg/injection, schedule: Q01DX009 (ip), vehicle: saline with Tween-80
[18] = dose: 400.0 mg/kg/injection, schedule: Q01DX001 (ip), vehicle: saline
[19] = dose: 400.0 mg/kg/injection, schedule: Q01DX009 (ip), vehicle: saline with Tween-80
[20] = dose: 50.0 mg/kg/injection, schedule: Q01DX009 (ip), vehicle: Klucel (hydroxypropylcellulose) (HPC)
[21] = dose: 100.0 mg/kg/injection, schedule: Q04DX003 (ip), vehicle: saline with Tween-80
[22] = dose: 200.0 mg/kg/injection, schedule: Q04DX003 (ip), vehicle: saline with Tween-80
[23] = dose: 400.0 mg/kg/injection, schedule: Q04DX003 (ip), vehicle: saline with Tween-80

Measured: T/C

N#C/C(=C\c1cccc(N)c1)c1ccccc1
inactive: [1] 100 % of control | [2] 95 % of control

O=C(O)CC1CCC2CC(O)c3cccc1c32 (centres undefined)
inactive: dose: 100.0 mg/kg/injection, schedule: Q04DX003 (ip), vehicle: acetone 106 % of control | dose: 200.0 mg/kg/injection, schedule: Q04DX003 (ip), vehicle: acetone 105 % of control | dose: 400.0 mg/kg/injection, schedule: Q04DX003 (ip), vehicle: acetone 105 % of control

S=P(Nc1ccc(Cl)cc1Cl)(Nc1ccc(Cl)cc1Cl)c1ccccc1
inactive: [3] 102 % of control | [4] 100 % of control | [5] 110 % of control

CC1(C(N)=O)CCC(C(=O)O)C1(C)C (centres undefined)
inactive: [6] 103 % of control | [7] 109 % of control | [8] 103 % of control | [9] 103 % of control

Clc1ccc(OCc2sc3ccc(Br)cc3c2CN2CCOCC2)cc1
inactive: dose: 75.0 mg/kg/injection, schedule: Q01DX009 (ip), vehicle: Klucel (hydroxypropylcellulose) (HPC) 100 % of control | [10] 94 % of control | [11] 105 % of control | [12] 96 % of control | dose: 300.0 mg/kg/injection, schedule: Q01DX009 (ip), vehicle: Klucel (hydroxypropylcellulose) (HPC) 95 % of control | [13] 89 % of control

CCCCC(=O)N/N=C/c1ccccc1[N+](=O)[O-]
inactive: [8] 95 % of control | [9] 90 % of control

CCOc1cc(C)c2cccc(C)c2n1
inactive: [7] 88 % of control | dose: 100.0 mg/kg/injection, schedule: Q01DX001 (ip), vehicle: other 95 % of control | [8] 96 % of control | dose: 200.0 mg/kg/injection, schedule: Q01DX001 (ip), vehicle: other 106 % of control | [9] 98 % of control

Cc1cc(C)c(C(=O)O)c(C)c1
inactive: [14] 100 % of control | [15] 93 % of control | [16] 96 % of control | [17] 94 % of control | [18] 96 % of control | [19] 94 % of control

CC1(C)C2CCC(O)C1C2 (centres undefined)
inactive: [1] 104 % of control | [2] 97 % of control | dose: 400.0 mg/kg/injection, schedule: Q01DX001 (ip), vehicle: saline with Tween-80 90 % of control

CC(C)=CCc1ccc(Cl)cc1
inactive: dose: 50.0 mg/kg/injection, schedule: Q01DX009 (ip), vehicle: saline with Tween-80 94 % of control | [15] 105 % of control | [17] 102 % of control

Cn1nnnc1N/N=C/c1ccccc1
inactive: [15] 98 % of control | [17] 95 % of control | [19] 95 % of control

Cc1nc(-c2ccccc2)c(-c2ccccc2)[nH]1
inactive: [20] 99 % of control | dose: 66.0 mg/kg/injection, schedule: Q01DX009 (ip), vehicle: Klucel (hydroxypropylcellulose) (HPC) 113 % of control | [3] 111 % of control | [10] 101 % of control | [11] 92 % of control | [12] 101 % of control

COc1cc(OC)c(OC)cc1/C=C\c1ccnc2ccccc12
inactive: [7] 105 % of control | [3] 98 % of control | [8] 100 % of control | [4] 108 % of control | [12] 108 % of control | [9] 109 % of control | [5] 114 % of control | [13] 108 % of control | dose: 800.0 mg/kg/injection, schedule: Q01DX009 (ip), vehicle: Klucel (hydroxypropylcellulose) (HPC) 112 % of control | dose: 800.0 mg/kg/injection, schedule: Q04DX003 (ip), vehicle: Klucel (hydroxypropylcellulose) (HPC) 110 % of control | dose: 1600.0 mg/kg/injection, schedule: Q04DX003 (ip), vehicle: Klucel (hydroxypropylcellulose) (HPC) 108 % of control

O=P(O)(O)Cc1c(Cl)c(Cl)c(CP(=O)(O)O)c(Cl)c1Cl
inactive: [14] 107 % of control | [16] 104 % of control | [18] 104 % of control

COc1ccc(Cl)cc1N1C(=O)C2C(C1=O)C1(Cl)C(Cl)=C(Cl)C2(Cl)C1(Cl)Cl (centres undefined)
inactive: [20] 91 % of control | [3] 101 % of control | [10] 98 % of control | [12] 98 % of control

COc1ccc(/C(C#N)=C2C=C/C(=N\O)C(C)=C/2Cl)cc1
inactive: [6] 109 % of control | [7] 96 % of control | [21] 92 % of control | [8] 93 % of control | [22] 106 % of control | [9] 91 % of control | [23] 97 % of control

CN1C(=O)CSC1=S
inactive: dose: 25.0 mg/kg/injection, schedule: Q01DX009 (ip), vehicle: Klucel (hydroxypropylcellulose) (HPC) 90 % of control | [20] 87 % of control | [3] 93 % of control

c1ccc2c(c1)CCc1c-2[nH]c2c1ccc1ccccc12
inactive: [14] 91 % of control | [16] 111 % of control | [18] 94 % of control

C=C1OC(=O)OC1(C)CC(OC)OC (centres undefined)
inactive: [15] 101 % of control | [21] 94 % of control | [17] 95 % of control | [22] 92 % of control | [19] 98 % of control | [23] 92 % of control

O=C(Nc1cc(Cl)c(Cl)cc1NC(=O)C(Cl)(Cl)Cl)C(Cl)(Cl)Cl
inactive: dose: 5.0 mg/kg/injection, schedule: Q01DX001 (ip), vehicle: other 97 % of control | dose: 10.0 mg/kg/injection, schedule: Q01DX001 (ip), vehicle: other 100 % of control

CN(C)CCCN1Cc2ccccc2C1
inactive: dose: 44.0 mg/kg/injection, schedule: Q01DX Z (ip), vehicle: saline 96 % of control | dose: 66.0 mg/kg/injection, schedule: Q01DX Z (ip), vehicle: saline 100 % of control | dose: 100.0 mg/kg/injection, schedule: Q01DX Z (ip), vehicle: saline 102 % of control

C[N+]1(CCCNC2=CC(=O)C(NCCC[N+]3(C)CCCCC3)=CC2=O)CCCCC1
inactive: dose: 0.5 mg/kg/injection, schedule: Q01DX001 (ip), vehicle: saline 105 % of control

CN(C)Cc1ccc(N)cc1
inactive: dose: 10.0 mg/kg/injection, schedule: Q01DX009 (ip), vehicle: water 107 % of control | dose: 20.0 mg/kg/injection, schedule: Q01DX009 (ip), vehicle: water 105 % of control | dose: 40.0 mg/kg/injection, schedule: Q01DX009 (ip), vehicle: water 107 % of control | dose: 50.0 mg/kg/injection, schedule: Q01DX009 (ip), vehicle: water 91 % of control | dose: 80.0 mg/kg/injection, schedule: Q01DX009 (ip), vehicle: water 96 % of control | dose: 100.0 mg/kg/injection, schedule: Q01DX009 (ip), vehicle: water 88 % of control | dose: 100.0 mg/kg/injection, schedule: Q04DX003 (ip), vehicle: water 100 % of control | dose: 200.0 mg/kg/injection, schedule: Q04DX003 (ip), vehicle: water 102 % of control

O=C(O)C1CCCN1 (centres undefined)
inactive: [14] 100 % of control | [16] 87 % of control | [18] 97 % of control

O/N=C(\c1ccccc1)C(O)c1ccccc1 (centres undefined)
inactive: [6] 113 % of control | [7] 105 % of control | [8] 105 % of control | [9] 102 % of control

CCCCN(CCCC)CCNc1ccc(C)c2sc3ccccc3c(=O)c12
inactive: dose: 40.0 mg/kg/injection, schedule: Q01DX Z (ip), vehicle: carboxymethylcellulose (CMC) 104 % of control | dose: 600.0 mg/kg/injection, schedule: Q01DX Z (ip), vehicle: carboxymethylcellulose (CMC) 95 % of control

C/C=C/C=C/COC(=O)CCCCCCCC
inactive: dose: 100.0 mg/kg/injection, schedule: Q04DX002 (ip), vehicle: saline 103 % of control | dose: 200.0 mg/kg/injection, schedule: Q04DX002 (ip), vehicle: saline 103 % of control | dose: 400.0 mg/kg/injection, schedule: Q04DX002 (ip), vehicle: saline 108 % of control

CCCCCCCCCCCCCCCCS(=O)(=O)N/N=C/c1ccc(NC(C)=O)cc1
inactive: [7] 98 % of control | [8] 95 % of control | [9] 103 % of control

NC(=O)c1ccc(C(F)(F)F)cc1O
inactive: [3] 95 % of control | [10] 100 % of control | [4] 95 % of control | [12] 97 % of control | [5] 95 % of control | [13] 95 % of control

OCP(CO)CO.[Cl][Hg][Cl]
inactive: dose: 30.0 mg/kg/injection, schedule: Q01DX001 (ip), vehicle: saline 119 % of control

Source: PubChem BioAssay AID248 (DTP/NCI, 2004)
